Test [1] relates to A2058 human melanoma cells. The experiment in a line: MTS cell viability assay in A2058 melanoma cells. Format: cell-based. The method, then:
(§1) Then, MTS assays for cell viability were carried out to determine the IC50 values. Four samples were tested for each isatin derivative at each concentration in each cell line, and the averaged data were shown in Table 2a and FIGS. 1˜4.
(§2) IC50 of values of isatin derivatives Compounds 101˜123 were determined in cancer cell lines DU145 and A2058 respectively.
(Formazan colour is commonly taken as a measure of viable cells.)

Test [2] has as its system OCI-Ly3 non-Hodgkins B cell lymphoma cells. Put plainly: MTS cell viability assay in OCI-Ly3 lymphoma cells. The format is cell-based. Particulars: Homo sapiens, OCI-Ly3, 48 hr, 1% DMSO. The method, then:
(§3) Each type of cells (5,000 or 10,000 cells/well) were treated with different concentration (0.01 μM to 5 μM in 1% DMSO of the test compound respectively for 48 hr). Then, MTS assays for cell viability were carried out to determine the IC50 values. Four samples were tested for each test compound at each concentration for each type of cells, and the averaged data were shown in Table 5 and FIGS. 10˜12.

The test system of test [3] is Ly-3 lymphoma SQ xenografts. Put plainly: Ly-3 lymphoma SQ xenografts in mice. The format is in vivo. Particulars: oral, 100 mg/kg once a day, 7th treatment day, P=0.03 vs vehicle. The method, then: Ly-3 lymphoma cells (1×10^7) were subcutaneously injected to II-2 rg(ko)/NOD-SCID female mice. 7 mice were treated with vehicle as the control group once a day. 7 mice were treated with Compound 109 as the treatment group by oral administration at 100 mg/kg dose, once a day. Mice were euthanized at the 7th treatment day by IACUC of the Beckman Research Institute of City of Hope. In the figure, * means P=0.03 wherein P values less than 0.05 were considered statistically significant.

The subject of test [4] is DU145 prostate cancer cells. Put plainly: MTS cell viability assay in DU145 prostate cancer cells. Format: cell-based. The method, then:
as §1, §2

In test [5] the test system is OVCAR5 ovarian cancer cells. The experiment in a line: MTS cell viability assay in OVCAR5 ovarian cancer cells. Particulars: Homo sapiens, OVCAR-5, OVCAR5, 48 hr, 1% DMSO. Format: cell-based. The method, then: (§4) Each type of cells (5,000 or 10,000 cells/well) were treated with different concentration (0.1 μM to 20 μM in 1% DMSO of cisplatin or Compound 2, 9, 12, 16 or 22 respectively for 48 hr). Then, MTS assays for cell viability were carried out to determine the IC50 values. Four samples were tested for each test compound at each concentration for each type of cells, and the averaged data were shown in Table 4 and FIGS. 6-8.

Test [6] concerns A2780 cisplatin-resistant ovarian cancer cells. The experiment in a line: MTS cell viability assay in A2780 cisplatin-resistant ovarian cancer cells. Format: cell-based. Particulars: for pIC50: A2780 cisplatin-resistant, 48 hr, 1% DMSO, MTS. The method, then:
as §4

Test [7] deals with EGFR. The experiment in a line: Immunoblot of EGFR phosphorylation in DU145 cells. The format is cell-based. Particulars: DU145, 0.5-5 μM, 4 hr, EGF 10 ng/ml, vs negative control, concentration-associated. The method, then:
(§5) DU145 prostate cancer cells were incubated in complete growth medium in 100 mm petri dishes (1×10^6 cells per dish) for 24 hr. Compound 2 was added at a concentration of 0.5 μM, 1.0 μM, 2.5 μM, and 5 μM respectively. Cell samples that were not added any Compound 2 were negative controls. After 4 hr, EGF (10 ng/ml final concentration) was added to culture media and cells were lysed using Laemmli buffer. Differences in the phosphorylation of Erk1/2 and EGFR were determined by immunoblot analysis (FIG. 13).

The test system of test [8] is Jak2. The experiment in a line: Immunoblot of Jak2 phosphorylation in A2058 cells. Particulars: A2058, 0.5-5 μM, 4 hr, vs negative control, concentration-associated. Format: cell-based, human. The method, then: (§6) A2058 melanoma cells were incubated in complete growth medium in 100 mm petri dishes (1×10^6 cells per dish) for 24 hr. Compound 2 was added at a concentration of 0.5 μM, 1.0 μM, 2.5 μM, and 5 μM respectively. Cell samples that were not added any Compound 2 were negative controls. After 4 hr, cells were lysed using Laemmli buffer. Differences in the phosphorylation of Her2/Neu, Jak2, Src, Stat3, AKT, and Erk1/2 were determined by immunoblot analysis (FIG. 14a).
(§7) A2058 melanoma cells were incubated in complete growth medium in 100 mm petri dishes (1×10^6 cells per dish) for 24 hr. Compound 2 was added at a concentration of 5 μM. Cell samples that were not added any Compound 2 were negative controls. Cells were lysed using Laemmli buffer 0.5 hr, 1 hr, 2 hr, 4 hr, 6 hr and 24 hr after treatment. Differences in the phosphorylation of Jak2, Src, Stat3, AKT, and Erk1/2 were determined by immunoblot analysis (FIG. 14b).

The subject of test [9] is Src. Put plainly: Immunoblot of Src phosphorylation in A2058 cells. Format: cell-based, human. Particulars: A2058, 0.5-5 μM, 4 hr, vs negative control, concentration-associated. The method, then: as §6, §7
A general note: Immunoblotting shows a protein as a band on a membrane.

Test [10] concerns Erk1/2. Put plainly: Immunoblot of Erk1/2 phosphorylation in DU145 cells. The format is cell-based. Particulars: DU145, 0.5-5 μM, 4 hr, EGF 10 ng/ml, vs negative control, concentration-associated. The method, then: as §5
Test [11] deals with Her2/Neu. The experiment in a line: Immunoblot of Her2/Neu phosphorylation in A2058 cells. Particulars: A2058, 0.5-5 μM, 4 hr, vs negative control, concentration-associated. The format is cell-based, human. The method, then: as §6
The test system of test [12] is Stat3. Put plainly: Immunoblot of Stat3 phosphorylation in A2058 cells. The format is cell-based, human. Particulars: A2058, 0.5-5 μM, 4 hr, vs negative control, concentration-associated. The method, then:
as §6, §7

Test [13] relates to Erk1/2. The experiment in a line: Immunoblot of Erk1/2 phosphorylation in A2058 cells. Format: cell-based, human. Particulars: A2058, 0.5-5 μM, 4 hr, vs negative control, concentration-associated. The method, then: as §6, §7
In test [14] the test system is PANC-1 pancreatic cancer cells. The experiment in a line: MTS cell viability assay in PANC-1 pancreatic cancer cells. Particulars: Homo sapiens, PANC-1, 48 hr, 1% DMSO. The format is cell-based. The method, then: (§8) Each type of cells (5,000 or 10,000 cells/well) were treated with different concentration (0.1 μM to 10 μM in 1% DMSO of Compound 2 or Compound 22 respectively for 48 hr). Then, MTS assays for cell viability were carried out to determine the IC50 values. Four samples were tested for each test compound at each concentration for each type of cells, and the averaged data were shown in Table 3 and FIG. 5.

The test system of test [15] is AKT. Put plainly: Immunoblot of AKT phosphorylation in A2058 cells. Format: cell-based, human. Particulars: A2058, 0.5-5 μM, 4 hr, vs negative control, concentration-associated. The method, then: as §6, §7
The test system of test [16] is SKOV3 ovarian cancer cells. Put plainly: MTS cell viability assay in SKOV3 ovarian cancer cells. The format is cell-based. Particulars: Homo sapiens, SK-OV-3, SKOV3, 48 hr, 1% DMSO. The method, then:
as §4

Test [17] has as its system tubulin. Put plainly: In vitro tubulin polymerization assay (HTS-Tubulin polymerization assay kit). Format: biochemical. Particulars: 1 μM, 4 mg/mL tubulin, 1 hr, 37° C. The method, then: To determine whether Compound 22 inhibits tubulin formation in vitro, HTS-Tubulin polymerization assay kits (cytoskeleton) were used. The assay procedure was performed using the manufacturer's protocol. Briefly, each 4 mg tubulin was resuspended with 1 mL of the cold G-PEM (80 mM PIPES pH6.9, 2 mM MgCl2, 0.5 mM EGTA) buffer to make the final concentration of 4 mg/mL. The reaction volume was 100 μL. Tubulin polymerization was monitored with the kinetic mode at […] for 1 hr at 37° C. […] Together, compound 22 is a promising lead compound to develop new anticancer drugs as new class of microtubule inhibitors.

Test [18] has as its system Cdc25C. The experiment in a line: Immunoblot of Cdc25C phosphorylation in DU145 and A2058 cells. Particulars: DU145 or A2058 cells, 0.1, 1 or 2.5 μM, 24 hr, higher dosage. The format is cell-based. The method, then:
(§9) DU145 prostate cancer cells or A2058 melanoma cells were incubated with Compound 22 at a concentration of 0.1, 1, or 2.5 μM or DMSO for 24 hr. Cells were lysed using Laemmli buffer. The differences in the content of Cyclin B1 and phosphorylation of Cdc25C were determined by immunoblot analysis.

Test [19] relates to Anaplastic Large T cell lymphoma cells. Put plainly: MTS cell viability assay in anaplastic large T cell lymphoma cells. Format: cell-based. Particulars: 48 hr, 1% DMSO. The method, then:
as §3

Test [20] relates to Cyclin B1. Put plainly: Immunoblot of Cyclin B1 content in DU145 and A2058 cells. The format is cell-based. Particulars: DU145 or A2058 cells, 0.1, 1 or 2.5 μM, 24 hr, higher dosage. The method, then:
as §9

For test [21], the system named is Daudi B Cell Burkitt lymphoma cells. Put plainly: MTS cell viability assay in Daudi lymphoma cells. The format is cell-based. Particulars: Homo sapiens, 48 hr, 1% DMSO. The method, then: as §3
For test [22], the system named is PaCa2 pancreatic cancer cells. Put plainly: MTS cell viability assay in PaCa2 pancreatic cancer cells. The format is cell-based. Particulars: PaCa-2, PaCa2, 48 hr, 1% DMSO. The method, then: as §8
The mark [23] stands for this setting: Homo sapiens, A2058, 48 h, 0.05 to 10 μM in 1% DMSO, MTS (Table 2a), read-out: A2058 IC50.
The mark [24] stands for this setting: Homo sapiens, DU-145, 48 h, DU145, 48 hr, 0.05 to 10 μM in 1% DMSO, MTS (Table 2a), read-out: DU145 IC50.

pIC50: −log10 of the molar value. Read-outs that look alike come from different tables or passages of the source.

What is called pIC50 is −log10 of the IC50, conventionally taken in molar units. For the compound `O=C1C(=O)N(C/C=C/c2cccnc2)c2ccc(-c3cccnc3)cc21` [Compound 109], the negative logarithm of the IC50 (pIC50) in test [1] (A2058, compound in DMSO, 48 hr, MTS (Table 2b), read-out: IC50 value, DMSO, A2058) is 6.24; in test [1] (Homo sapiens, A2058, 48 h, A2058, compound in water, 48 hr, MTS (Table 2b), read-out: IC50 value, Water, A2058) it was 6.00; in [2], 7.20; in test [4] (DU145, compound in DMSO, 48 hr, MTS (Table 2b), read-out: IC50 value, DMSO, DU145) it was 6.32; in test [4] (Homo sapiens, DU-145, 48 h, DU145, compound in water, 48 hr, MTS (Table 2b), read-out: IC50 value, Water, DU145), 6.20. Moreover, the “efficacy (tumor volume) in Ly-3 lymphoma SQ xenografts” value in [3] is “statistically significantly showed efficacy”.

Regarding `O=C1C(=O)N(CCCc2ccccc2)c2ccc(-c3cccnc3)cc21` [Compound 9], the pIC50 in test [1] (setting [23]) is 6.18; in [2] it was 6.59; in test [5], 6.08; in [4] (setting [24]) it was 6.33; in [6], 6.41; in test [6] (Homo sapiens, A2780, 48 h) it was 6.12. The “viability of A2780 cisplatin-resistant ovarian cancer cells in comparison of cisplatin” value in test [6] (FIG. 9, compared with cisplatin) is listed as “significantly reduced the viability”.

On to `O=C1C(=O)N(Cc2ccccc2)c2ccc(-c3cccnc3)cc21` [Compound 2], for which the “phosphorylation of EGFR” value in test [7] is given as “less phosphorylations”. Moreover, the “phosphorylation of Jak2” value in test [8] is reported as “less phosphorylations”. In addition, in test [9], the “phosphorylation of Src” value is on record as “less phosphorylations”. The negative-log IC50 (pIC50) in test [1] (setting [23]) was 6.11; in [5], 6.10; in [14], 6.01; in test [4] (setting [24]), 6.10; in test [16] it was less than 5.30. Moreover, the “phosphorylation of Erk1/2” value in [10] and in [13] was “less phosphorylations” throughout. Moreover, in [11], the “phosphorylation of Her2/Neu” value was “less phosphorylations”. Besides, the “phosphorylation of Stat3” value in test [12] is “less phosphorylations”. In [15], the “phosphorylation of AKT” value is “less phosphorylations”.

With `O=C1C(=O)N(C/C=C/c2ccccc2)c2ccc(-c3cccnc3)cc21` [Compound 22], the “tubulin polymerization in vitro” value in test [17] is on record as “substantially inhibited tubulin polymerization”. Moreover, the “phosphorylation of Cdc25C” value in test [18] is “less phosphorylation of Cdc25C”. For the same compound, the pIC50 in test [19] was 6.89; in test [1] (setting [23]) it was 6.68; in test [2] it was 7.41; in test [5] it was 6.47; in [21] it was 7.42; in [14], 7.00. Further, the pIC50 is 7.02 in [22]; 6.52 in test [4] (setting [24]); 6.36 in test [6] (Homo sapiens, A2780, 48 h). In addition, the “content of Cyclin B1” value in [20] is “increased amount of Cyclin B1”.

With `O=C1C(=O)N(Cc2ccsc2)c2ccc(-c3cccnc3)cc21` [Compound 16, N-(3-Thienylmethyl)-5-(pyridin-3-yl)indoline-2,3-dione], the pIC50 was 5.74 in test [1] (setting [23]); 5.77 in test [5]; 6.05 in test [4] (setting [24]); 6.30 in [6] (Homo sapiens, A2780, 48 h).

`O=C1C(=O)N(Cc2cccs2)c2ccc(-c3cccnc3)cc21` [Compound 12, N-(2-Thienylmethyl)-5-(pyridin-3-yl)indoline-2,3-dione]: the negative logarithm of the IC50 (pIC50) in [1] (setting [23]) was 5.70; in test [5], 5.66; in test [4] (setting [24]) it was 6.04; in [6] (Homo sapiens, A2780, 48 h), 6.05.

The values above are taken from patent US9828342B2, “Isatin derivatives, pharmaceutical compositions thereof, and methods of use thereof” (CITY OF HOPE, priority 2012, dated 2017).
